The target in data set [1] is CDK2 (Homo sapiens (Human), UniProt P24941). The data set is described as follows: CDK2 Inhibition Assay. It is filed as biochemical. The procedure:
CDK2 Inhibition Assay. […] The same volume of DMSO was adopted as high control. 20 nL of the test compound solution in DMSO were dispensed into a new 384-well assay plate by Echo 550. […] Kinase assay buffer supplemented with substrate peptides was employed as low control to monitor the background. 400 µM ATP was prepared in kinase assay buffer containing and 5 μL of ATP solution was added to each well to start the reaction. The assay plate was incubated at 25° C. for 90 minutes and the reaction was stopped by adding 40 μL of 0.5 M EDTA.
Phosphorylated fluorescent-tagged peptides were differentiated from non-phosphorylated peptides by separating using Caliper EZ Reader II and the detection was directly converted to conversion ratio.

The target of data set [2] is CDK5 (Homo sapiens (Human), UniProt Q00535). The data set can be described thus: CDK5 Inhibition Assay. It is filed as biochemical. Here is the method:
CDK5 Inhibition Assay. […] The same volume of DMSO was adopted as high control. 20 nL of the test compound solution in DMSO were dispensed into a new 384-well assay plate by Echo 550. […] Kinase assay buffer supplemented with substrate peptides was employed as low control to monitor the background. 40 µM ATP was prepared in kinase assay buffer containing and 5 μL of ATP solution was added to each well to start the reaction. The assay plate was incubated at 25° C. for 90 minutes and the reaction was stopped by adding 40 μL of 0.5 M EDTA.

The nature of data set [3]: Metabolic stability in human liver microsomes. It is filed as in vitro ADME. The following applies: human liver microsomes 0.5 mg/mL. The procedure:
(§1) Metabolic stability of compounds is assessed at […] with human, rat, mouse, dog, and monkey liver microsomes (0.5 mg/mL). Compound and protein are equilibrated at 37° C. for 5 min prior to reaction initiation with co-factor NADPH. […] After quenching and centrifugation, supernatants were analyzed by LC-MS with methods specific to compounds tested.
(Liver microsomes are a subcellular fraction often used to study metabolism.)

Data set [4] is described as follows: Metabolic stability in rat liver microsomes. It is filed as in vitro ADME. The following applies: rat liver microsomes 0.5 mg/mL. The procedure: as §1
Data set [5] can be described thus: Metabolic stability in mouse liver microsomes. It is filed as in vitro ADME. The following applies: mouse liver microsomes 0.5 mg/mL. Here is the method: as §1
The nature of data set [6]: Metabolic stability in dog liver microsomes. It is filed as in vitro ADME. The following applies: dog liver microsomes 0.5 mg/mL. Here is the method:
as §1

Data set [7] in a line: Metabolic stability in monkey liver microsomes. It is filed as in vitro ADME. The following applies: monkey liver microsomes 0.5 mg/mL. The procedure:
as §1

The test system of data set [8] is HS68 cells. The following applies: HS68 cells treated for 24 hours.
Experimental: HS68 cells (human skin fibroblast cell line, ATCC) were treated for 24 hours with compounds of the present invention at 0, 1, 3, 10, 30, 100, 300, or 1,000 nmol/L final concentration. Cells were harvested and fixed in ice-cold 70% ethanol (Sigma-Aldrich). Fixed cells were washed with PBS, stained with 40 μg/mL propidium iodide (Thermofisher Scientific), 10 g RNAseA (Sigma-Aldrich) in PBS-CMF (calcium magnesium free). Samples were processed using flow cytometer (Fisher), and cell-cycle analysis was completed using FlowJo software (Tree Star).
Data set [9] is described as follows: Mouse pharmacokinetics (p.o. and i.v.).
Experimental: Blood samples were taken at 0.083, 0.25, 0.5, 1.0, 3.0, 6.0 and 24 hours post i.v. dosing and at 0.25, 0.5, 1.0, 3.0, 6.0 and 24 hours post p.o. dosing. The plasma concentration of compounds were determined by HPLC.

Like-named read-outs stand apart in the source and are kept apart here.

As a reminder, the IC50 is the concentration that inhibits the measured activity by half. What is called half-life is how long it takes for the measured level to halve. By CLint scaled is commonly meant a measure of how fast metabolising enzymes remove a compound, apart from limits set by blood flow. As usually defined, the AUC(0-t) is exposure summed from dosing to a finite time, without extrapolation to infinity. Usually Cmax stands for the peak of the concentration-time curve. By Tmax is commonly meant the time from dosing to the highest level.

Sequence of CDK5 (Q00535 whole entry): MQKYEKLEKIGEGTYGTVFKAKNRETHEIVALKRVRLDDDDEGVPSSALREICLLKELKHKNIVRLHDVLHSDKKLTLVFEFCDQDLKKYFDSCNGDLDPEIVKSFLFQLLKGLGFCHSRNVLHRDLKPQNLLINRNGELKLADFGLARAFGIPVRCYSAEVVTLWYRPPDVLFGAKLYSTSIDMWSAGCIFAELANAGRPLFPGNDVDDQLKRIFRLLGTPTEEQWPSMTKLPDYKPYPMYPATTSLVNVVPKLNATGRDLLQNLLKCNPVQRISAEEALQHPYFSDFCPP
Sequence of CDK5 (Q15078 99-307 partner): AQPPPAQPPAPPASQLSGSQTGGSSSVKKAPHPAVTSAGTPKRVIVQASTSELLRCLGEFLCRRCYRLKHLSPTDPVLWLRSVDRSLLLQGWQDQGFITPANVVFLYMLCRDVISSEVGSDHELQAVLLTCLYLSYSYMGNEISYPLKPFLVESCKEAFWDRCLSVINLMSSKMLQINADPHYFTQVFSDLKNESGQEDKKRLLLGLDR

Regarding `CCN1CCC(COc2ccc(Nc3ncc(F)c(-c4cc(F)c5nc6n(c5c4)C(C)(C)CC6)n3)nc2)CC1` [Example 8, N-(5-((1-ethylpiperidin-4-yl)methoxy)pyridin-2-yl)-5-fluoro-4-(5-fluoro-1,1-dimethyl-2,3-dihydro-1H-benzo[d]pyrrolo[1,2-a]imidazol-7-yl)pyrimidin-2-amine], the IC50 in data set [1] was found to be 285 nM; in [1] (read-out: CDK2 IC50) it was 368 nM; in data set [2], 705 nM. Besides, the half-life in data set [3] (NADPH, 37° C.) was 1.34 h; in [4] (NADPH, 37° C.), 1.29 h; in data set [5] (NADPH, 37° C.) it was 0.45 h; in data set [6] (NADPH, 37° C.), 0.402 h; in data set [7] (NADPH, 37° C.) it was 0.223 h; in [9] (plasma, iv, 2 mg/kg) it was 3.36 h. For the same compound, the CLint scaled in data set [3] (scaled) came to 21.7 mL/min/kg; in [4] (scaled), 32.2 mL/min/kg; in data set [5] (scaled), 202 mL/min/kg; in data set [6] (scaled), 143 mL/min/kg; in [7] (scaled), 151 mL/min/kg. Besides, in data set [8], the “G1 % (max)” value came to 79.35%. The F in [9] (10 mg/kg p.o. vs 2 mg/kg i.v.) is listed as 45.6%. The AUC(0-t) in data set [9] (plasma, iv, 2 mg/kg) was found to be 2110 ng·h/mL; in data set [9] (plasma, po, 10 mg/kg) it was 4820 ng·h/mL. The same compound had a Vd in data set [9] (plasma, iv, 2 mg/kg) of 3.71 L/kg. The compound also had a clearance in data set [9] (plasma, iv, 2 mg/kg) of 15.7 mL/min/kg. In addition, the Cmax in data set [9] (plasma, po, 10 mg/kg) is 340 ng/mL. Also, the Tmax in data set [9] (plasma, po, 10 mg/kg) turned out to be 6 h.

These data come from patent publication US11351170B2, “Substituted pyrimidines as CDK4/6 inhibitors” (priority 2017, dated 2022).
